Assay results taken from patent publication US5574043A, “Certain [1,2,5-thiadiazol-4-yl]-1-azabicyclo [3.2.1]octane derivatives and their pharmaceutical uses” (Novo Nordisk A/S, priority 1995, dated 1996).
Where a name gives a salt, the structure may show the parent alone.

biological target: muscarinic acetylcholine receptors; assay: Inhibition of specific binding of 3H-Oxotremorine-M (OXO BINDING) in vitro, rat cortex; parameters: species or system male Wistar rats; conditions: rat cortex homogenate, 3H-Oxotremorine 1.0 nM, 30 min at 25° C., pH 7.4
From the text: The pharmacological properties of the compounds of the invention can be illustrated by determining their capability to inhibit the specific binding of ^3 H-Oxotremorine-M (^3 H-Oxo). Birdsdall N. J. M., Hulme E. C., and Burgen A. S. V. (1980). "The Character of Muscarinic Receptors in Different Regions of the Rat Brain". Proc. Roy. Soc. London (Series B) 207,1.
^3 H-Oxo labels muscarinic receptor in the CNS (with a preference for agonist domains of the receptors). Three different sites are labelled by ^3 H-Oxo. […] Using the present experimental conditions only the high and medium affinity sites are determined.
The inhibitory effects of compounds on ^3 H-Oxo binding reflects the affinity for muscarinic acetylcholine receptors.
All preparations are performed at 0°-4° C. unless otherwise indicated. Fresh cortex (0.1-1 g) from male Wistar rats (150-250 g) is homogenized for 5-10 s in 10 ml 20 mM Hepes pH: 7.4, with an Ultra-Turrax homogenizer. The homogenizer, is rinsed with 10 ml of buffer and the combined suspension centrifuged for 15 min at 40,000×g. The pellet is washed three times with buffer. In each step the pellet is homogenized as before in 2×10 ml of buffer and centrifuged for 10 min at 40,000×g.
The final pellet is homogenized in 20 mM Hepes pH: 7.4 (100 ml per g of original tissue) and used for binding assay. Aliquots of 0.5 ml is added 25 μl of test solution and 25 μl of ^3 H-Oxotremorine (1.0 nM, final concentration) mixed and incubated for 30 min at 25° C. Non-specific binding is determined in triplicate using arecoline (1 μg/ml, final concentration) as the test substance. After incubation samples are added 5 ml of ice-cold buffer and poured directly onto Whatman GF/C glass fibre filters under suction and immediately washed 2 times with 5 ml of ice-cold buffer. The amount of radioactivity on the filters are determined by conventional liquid scintillation counting. Specific binding is total binding minus non specific binding.
Test substances are dissolved in 10 ml water (if necessary heated on a steam bath for less than 5 minutes) at a concentration of 2.2 mg/ml.
The test value will be given as IC50 (the concentration (ng/ml) of the test substance which inhibits the specific binding of ^3 H-Oxo by 50%).
IC50 =(applied test substance concentration) [formula] where Co is specific binding in control assays and Cx is the specific binding in the test assay. (The calculations assume normal mass-action kinetics).

Point of comparison: CCCCSc1nsnc1[C@H]1CN2CC[C@H]1C2 (relative stereo) [Compound 42, Exo-3-(3-butylthio-1,2,5-thiadiazol-4-yl)-1-azabicyclo[2.2.1]heptane oxalate], “Inhibition in vitro OXO BINDING IC50” value 0.35 ng/mL. Against it:
- CCCCCSc1nsnc1[C@H]1CN2CCC[C@H]1C2 (relative stereo) [Compound 31, Exo-6-(3-pentylthio-1,2,5-thiadiazol-4-yl)-1-azabicyclo[3.2.1]octane oxalate] — 1.7-fold higher, 0.6 ng/mL
- CCSc1nsnc1[C@H]1CN2CCC[C@H]1C2 (relative stereo) [Compound 32, Exo-6-(3-ethylthio-1,2,5-thiadiazol-4-yl)-1-azabicyclo[3.2.1]octane oxalate] — within 1.5-fold, 0.45 ng/mL
- CCCCCSc1nsnc1[C@@H]1CN2CC[C@H]1C2 (relative stereo) [Compound 33, Endo-3-(3-pentylthio-1,2,5-thiadiazol-4-yl)-1-azabicyclo[2.2.1]heptane fumarate] — 18-fold higher, 6.4 ng/mL
- CCCCCCSc1nsnc1[C@@H]1CN2CC[C@H]1C2 (relative stereo) [Compound 34, Endo-3-(3-hexylthio-1,2,5-thiadiazol-4-yl)-1-azabicyclo[2.2.1]heptane fumarate] — 23-fold higher, 7.9 ng/mL
- c1ccc(CCCSc2nsnc2[C@@H]2CN3CC[C@H]2C3)cc1 (relative stereo) [Compound 35, Endo-3-(3-(3-phenylpropylthio)-1,2,5-thiadiazol-4-yl)-1-azabicyclo[2.2.1]heptane oxalate] — 5.4-fold higher, 1.9 ng/mL
- CCCCSc1nsnc1[C@@H]1CN2CC[C@H]1C2 (relative stereo) [Compound 36, Endo-3-(3-butylthio-1,2,5-thiadiazol-4-yl)-1-azabicyclo[2.2.1]heptane fumarate] — 2.3-fold higher, 0.82 ng/mL
- CCCSc1nsnc1[C@@H]1CN2CC[C@H]1C2 (relative stereo) [Compound 37, Endo:3-(3-propylthio-1,2,5-thiadiazol-4-yl)-1-azabicyclo[2.2.1]heptane oxalate] — 5.7-fold higher, 2.0 ng/mL
- CCCCCCSc1nsnc1[C@H]1CN2CC[C@H]1C2 (relative stereo) [Compound 39, Exo-3-(3-hexylthio-1,2,5-thiadiazol-4-yl)-1-azabicyclo[2.2.1]heptane oxalate] — within 1.5-fold, 0.52 ng/mL
- CCCSc1nsnc1[C@H]1CN2CC[C@H]1C2 (relative stereo) [Compound 40, Exo-3-(3-propylthio-1,2,5-thiadiazol-4-yl)-1-azabicyclo[2.2.1]heptane oxalate] — 1.8-fold lower, 0.19 ng/mL
- c1ccc(CCCSc2nsnc2[C@H]2CN3CC[C@H]2C3)cc1 (relative stereo) [Compound 41, Exo-3-(3-(3-phenylpropylthio)-1,2,5-thiadiazol-4-yl)-1-azabicyclo[2.2.1]heptane oxalate] — 1.6-fold higher, 0.56 ng/mL
- CCCSc1nsnc1[C@H]1CN2CCC[C@@H]1C2 (relative stereo) [Compound 57, Endo-6-(3-propylthio-1,2,5-thiadiazol-4-yl)-1-azabicyclo[3.2.1]octane oxalate] — 13-fold higher, 4.6 ng/mL
- CSc1nsnc1[C@H]1CN2CCC[C@H]1C2 (relative stereo) [Compound 74, Exo-6-(3-methylthio-1,2,5-thiadiazol-4-yl)-1-azabicyclo[3.2.1]octane oxalate] — within 1.5-fold, 0.45 ng/mL
- CCCCCCCSc1nsnc1[C@H]1CN2CCC[C@H]1C2 (relative stereo) [Compound 75, Exo-6-(3-heptylthio-1,2,5-thiadiazol-4-yl)-1-azabicyclo[3.2.1]octane oxalate] — 2.7-fold higher, 0.96 ng/mL
- CC(C)CCCSc1nsnc1[C@H]1CN2CCC[C@H]1C2 (relative stereo) [Compound 76, Exo-6-(3-isohexylthio-1,2,5-thiadiazol-4-yl)-1-azabicyclo[3.2.1]octane oxalate] — 7.4-fold higher, 2.6 ng/mL
- CC(C)CCSc1nsnc1[C@H]1CN2CCC[C@H]1C2 (relative stereo) [Compound 77, Exo-6-(3-isopentylthio-1,2,5-thiadiazol-4-yl)-1-azabicyclo[3.2.1]octane] — 2.5-fold higher, 0.89 ng/mL
- N#CCCCCSc1nsnc1[C@H]1CN2CCC[C@H]1C2 (relative stereo) [Compound 78, Exo-6-(3-(4-cyanobutylthio)-1,2,5-thiadiazol-4-yl)-1-azabicyclo[3.2.1]octane oxalate] — within 1.5-fold, 0.30 ng/mL
- N#CCSc1nsnc1[C@H]1CN2CCC[C@H]1C2 (relative stereo) [Compound 79, Exo-6-(3-cyanomethylthio-1,2,5-thiadiazol-4-yl)-1-azabicyclo[3.2.1]octane oxalate] — within 1.5-fold, 0.50 ng/mL
- N#CCCSc1nsnc1[C@H]1CN2CCC[C@H]1C2 (relative stereo) [Compound 80, Exo-6-(3-(2-cyanoethylthio)-1,2,5-thiadiazol-4-yl)-1-azabicyclo[3.2.1]octane oxalate] — within 1.5-fold, 0.30 ng/mL
- N#CCCCSc1nsnc1[C@H]1CN2CCC[C@H]1C2 (relative stereo) [Compound 81, Exo-6-(3-(3-cyanopropyithio)-1,2,5-thiadiazol-4-yl)-1-azabicyclo[3.2.1]octane oxalate] — within 1.5-fold, 0.40 ng/mL
- N#Cc1ccc(CSc2nsnc2[C@H]2CN3CCC[C@H]2C3)cc1 (relative stereo) [Compound 82, Exo-6-(3-(4-cyanobenzylthio)-1,2,5-thiadiazol-4-yl)-1-azabicyclo[3.2.1]octane oxalate] — within 1.5-fold, 0.40 ng/mL
- c1ccc(CCCSc2nsnc2[C@H]2CN3CCC[C@H]2C3)cc1 (relative stereo) [Compound 83, Exo-6-(3-(3-phenylpropylthio)-1,2,5-thiadiazol-4-yl)-1-azabicyclo[3.2.1]octane oxalate] — within 1.5-fold, 0.43 ng/mL
- c1ccc(OCCSc2nsnc2[C@@H]2CN3CCC[C@H]2C3)cc1 (relative stereo) [Compound 84, Endo-6-(3-(2-phenoxyethylthio)-1,2,5-thiadiazol-4-yl)-1-azabicyclo[3.2.1]octane oxalate] — 37-fold higher, 13 ng/mL
- CSc1nsnc1[C@@H]1CN2CCC[C@H]1C2 (relative stereo) [Compound 85, Endo-6-(3-methylthio-1,2,5-thiadiazol-4-yl)-1-azabicyclo[3.2.1]octane oxalate] — 21-fold higher, 7.2 ng/mL
- CC(C)CCSc1nsnc1[C@@H]1CN2CCC[C@H]1C2 (relative stereo) [Compound 86, Endo-6-(3-isopentylthio-1,2,5-thiadiazol-4-yl)-1-azabicyclo[3.2.1]octane oxalate] — 10-fold higher, 3.5 ng/mL
- CC(C)CCCSc1nsnc1[C@H]1CN2CCC[C@@H]1C2 (relative stereo) [Compound 87, Endo-6-(3-isohexylthio-1,2,5-thiadiazol-4-yl)-1-azabicyclo[3.2.1]octane oxalate] — 29-fold higher, 10 ng/mL
- c1ccc(CSc2nsnc2[C@H]2CN3CCC[C@@H]2C3)cc1 (relative stereo) [Compound 88, Endo-6-(3-benzylthio-1,2,5-thiadiazol-4-yl)-1-azabicyclo[3.2.1]octane oxalate] — 17-fold higher, 6.1 ng/mL
- N#CCSc1nsnc1[C@H]1CN2CCC[C@@H]1C2 (relative stereo) [Compound 89, Endo-6-(3-cyanomethylthio-1,2,5-thiadiazol-4-yl)-1-azabicyclo[3.2.1]octane oxalate] — 34-fold higher, 12 ng/mL
- N#CCCSc1nsnc1[C@H]1CN2CCC[C@@H]1C2 (relative stereo) [Compound 90, Endo-6-(3-(2-cyanoethylthio)-1,2,5-thiadiazol-4-yl)-1-azabicyclo[3.2.1]octane oxalate] — 9.4-fold higher, 3.3 ng/mL
- N#CCCCSc1nsnc1[C@H]1CN2CCC[C@@H]1C2 (relative stereo) [Compound 91, Endo-6-(3-(3-cyanopropylthio)-1,2,5-thiadiazol-4-yl)-1-azabicyclo[3.2.1]octane oxalate] — 15-fold higher, 5.2 ng/mL
- N#CCCCCSc1nsnc1[C@H]1CN2CCC[C@@H]1C2 (relative stereo) [Compound 92, Endo-6-(3-(4-cyanobutylthio)-1,2,5-thiadiazol-4-yl)-1-azabicyclo[3.2.1]octane oxalate] — 4.3-fold higher, 1.5 ng/mL
